The record followed here is PubChem BioAssay AID256 (DTP/NCI, 2004).

The structures appear in SMILES notation. Where “and” joins values, the source holds several entries; their conditions need not be identical. Identical values can stand only once. Inconclusive results and toxic doses are left out.

The subject of this experiment is CD2F1 mice, L1210 leukemia ip, survival T/C. Kind of experiment: NCI In Vivo Anticancer Drug Screen. Data for tumor model L1210 Leukemia (intraperitoneal) in CD2F1 (CDF1) mice. The conditions noted are these: higher = longer survival. The essentials:
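Activity against a transplanted murine tumor was judged by comparing the compound group with a vehicle group. The outcome in the treated animals was divided by that in the controls.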

[1] abbreviates: endpoint: mean survival time, dose: 100.0 mg/kg/injection, schedule: Q04DX003 (ip), vehicle: saline with Tween-80.
Setting [2] is: endpoint: mean survival time, dose: 100.0 mg/kg/injection, schedule: Q01DX009 (ip), vehicle: saline with Tween-80.
The mark [3] stands for this setting: endpoint: mean survival time, dose: 200.0 mg/kg/injection, schedule: Q01DX009 (ip), vehicle: saline with Tween-80.
The mark [4] stands for this setting: endpoint: mean survival time, dose: 400.0 mg/kg/injection, schedule: Q01DX009 (ip), vehicle: saline with Tween-80.
Where [5] appears, read: endpoint: mean survival time, dose: 200.0 mg/kg/injection, schedule: Q04DX003 (ip), vehicle: saline with Tween-80.
The mark [6] stands for this setting: endpoint: mean survival time, dose: 400.0 mg/kg/injection, schedule: Q04DX003 (ip), vehicle: saline with Tween-80.
[7] abbreviates: endpoint: mean survival time, dose: 100.0 mg/kg/injection, schedule: Q01DX001 (ip), vehicle: saline.
[8] abbreviates: endpoint: mean survival time, dose: 200.0 mg/kg/injection, schedule: Q01DX001 (ip), vehicle: saline.
Setting [9] is: endpoint: mean survival time, dose: 400.0 mg/kg/injection, schedule: Q01DX001 (ip), vehicle: saline.
[10] abbreviates: endpoint: mean survival time, dose: 50.0 mg/kg/injection, schedule: Q01DX009 (ip), vehicle: saline with Tween-80.
[11] abbreviates: endpoint: mean survival time, dose: 100.0 mg/kg/injection, schedule: Q01DX009 (ip), vehicle: Klucel (hydroxypropylcellulose) (HPC).
Setting [12] is: endpoint: mean survival time, dose: 200.0 mg/kg/injection, schedule: Q01DX009 (ip), vehicle: Klucel (hydroxypropylcellulose) (HPC).
The mark [13] stands for this setting: endpoint: mean survival time, dose: 400.0 mg/kg/injection, schedule: Q01DX009 (ip), vehicle: Klucel (hydroxypropylcellulose) (HPC).

Regarding `NC(=O)c1ccc[n+](Cc2c(Cl)cccc2Cl)c1`, the T/C was 105 % of control under setting [1]; 102 % of control (endpoint: median survival time, dose: 0.75 mg/kg/injection, schedule: Q01DX009 (ip), vehicle: saline); 101 % of control (endpoint: median survival time, dose: 1.5 mg/kg/injection, schedule: Q01DX009 (ip), vehicle: saline); 109 % of control (endpoint: median survival time, dose: 3.0 mg/kg/injection, schedule: Q01DX009 (ip), vehicle: saline); 102 % of control (endpoint: median survival time, dose: 6.0 mg/kg/injection, schedule: Q01DX009 (ip), vehicle: saline); 102 % of control (endpoint: median survival time, dose: 12.0 mg/kg/injection, schedule: Q01DX009 (ip), vehicle: saline).
Take `C=C(C)c1c2ccccc2cc2cccc(Sc3ccccc3)c12`: the T/C is, setting by setting: under setting [2], 95 % of control; under setting [3], 93 % of control; under setting [4], 95 % of control.
On to `NN(C(=O)c1ccc(Cl)cc1)c1ccccc1`, for which the T/C reads like this: under setting [1], 95 % of control; under setting [5], 92 % of control; under setting [6], 97 % of control.
For `COc1ccccc1OC(=O)Nc1ccccc1F`, in that order: 101 % of control, 97 % of control and 101 % of control.
For `CC1C(=O)OC2C1CCC1(C)C=CC(=O)C(C)C21` (stereo not given), the T/C (endpoint: mean survival time, dose: 5.0 mg/kg/injection, schedule: Q04DX002 (ip), vehicle: saline with Tween-80) was 108 % of control; the T/C (endpoint: mean survival time, dose: 10.0 mg/kg/injection, schedule: Q04DX002 (ip), vehicle: saline with Tween-80) was 100 % of control; the T/C (endpoint: mean survival time, dose: 20.0 mg/kg/injection, schedule: Q04DX002 (ip), vehicle: saline with Tween-80) was 108 % of control; the T/C (endpoint: mean survival time, dose: 100.0 mg/kg/injection, schedule: Q04DX002 (ip), vehicle: saline with Tween-80) was 116 % of control; the T/C (endpoint: mean survival time, dose: 200.0 mg/kg/injection, schedule: Q04DX002 (ip), vehicle: saline with Tween-80) is 120 % of control.
As for `O=C(O)C1CCCC[N-]1.[Cl][Pd][Cl]` (stereo not given), the T/C is, setting by setting: (endpoint: mean survival time, dose: 12.5 mg/kg/injection, schedule: Q01DX001 (ip), vehicle: saline) 95 % of control; (endpoint: mean survival time, dose: 25.0 mg/kg/injection, schedule: Q01DX001 (ip), vehicle: saline) 108 % of control; (endpoint: mean survival time, dose: 50.0 mg/kg/injection, schedule: Q01DX001 (ip), vehicle: saline) 98 % of control; under setting [7], 104 % of control; under setting [8], 109 % of control.
On to `O=C(O)c1ccccc1Nc1ccc(Br)cc1`, for which the T/C is 95 % of control (endpoint: mean survival time, dose: 25.0 mg/kg/injection, schedule: Q04DX003 (ip), vehicle: saline with Tween-80); 104 % of control (endpoint: mean survival time, dose: 50.0 mg/kg/injection, schedule: Q04DX003 (ip), vehicle: saline with Tween-80); 93 % of control and 112 % of control under setting [1]; 98 % of control under setting [5].
Turning to `c1ccc(OCC2CO2)c(OCC2CO2)c1` (stereo not given), the T/C by setting is: (endpoint: median survival time, dose: 25.0 mg/kg/injection, schedule: Q01DX009 (ip), vehicle: saline with Tween-80) 110 % of control and 111 % of control; (endpoint: median survival time, dose: 50.0 mg/kg/injection, schedule: Q01DX009 (ip), vehicle: saline with Tween-80) 113 % of control and 117 % of control; (endpoint: median survival time, dose: 200.0 mg/kg/injection, schedule: Q01DX009 (ip), vehicle: saline with Tween-80) 153 % of control and 168 % of control; (endpoint: median survival time, dose: 400.0 mg/kg/injection, schedule: Q01DX009 (ip), vehicle: saline with Tween-80) 104 % of control.
As for `CCCCCC(/C=C/C1C=CC(=O)C1C/C=C/CCCC(=O)OC)OC(C)=O` (stereo not given), the T/C runs as follows: under setting [1], 95 % of control; under setting [5], 100 % of control; under setting [6], 95 % of control.
On to `c1ccc(P(c2cccc3ccccc23)c2cccc3ccccc23)cc1`, for which the T/C under setting [7] is 93 % of control, the T/C under setting [8] was 93 % of control and the T/C under setting [9] was 91 % of control.
As for `COc1cc(Cl)ccc1NC(=O)Nc1ccc(S(N)(=O)=O)cc1`, the T/C under setting [10] was 91 % of control, the T/C under setting [2] was 100 % of control and the T/C under setting [3] was 91 % of control.
Consider `CN(C)c1ccc(NS(=O)(=O)c2ccccc2)cc1`, for which the T/C was 103 % of control (endpoint: mean survival time, dose: 100.0 mg/kg/injection, schedule: Q01DX001 (ip), vehicle: saline with Tween-80); 98 % of control (endpoint: mean survival time, dose: 200.0 mg/kg/injection, schedule: Q01DX001 (ip), vehicle: saline with Tween-80); 97 % of control (endpoint: mean survival time, dose: 400.0 mg/kg/injection, schedule: Q01DX001 (ip), vehicle: saline with Tween-80).
On to `N#Cc1c(F)c(F)c(C#N)c(F)c1F`, for which the T/C was 104 % of control (endpoint: mean survival time, dose: 5.0 mg/kg/injection, schedule: Q04DX003 (ip), vehicle: Klucel (hydroxypropylcellulose) (HPC)); 106 % of control (endpoint: mean survival time, dose: 10.0 mg/kg/injection, schedule: Q04DX003 (ip), vehicle: Klucel (hydroxypropylcellulose) (HPC)); 102 % of control (endpoint: mean survival time, dose: 20.0 mg/kg/injection, schedule: Q04DX003 (ip), vehicle: Klucel (hydroxypropylcellulose) (HPC)); 104 % of control (endpoint: mean survival time, dose: 40.0 mg/kg/injection, schedule: Q04DX003 (ip), vehicle: Klucel (hydroxypropylcellulose) (HPC)).
Consider `O=S(=O)(O)/[N+]([O-])=N/O`, for which the T/C runs as follows: (endpoint: mean survival time, dose: 100.0 mg/kg/injection, schedule: Q01DX009 (ip), vehicle: saline sonified) 103 % of control; (endpoint: mean survival time, dose: 200.0 mg/kg/injection, schedule: Q01DX009 (ip), vehicle: saline sonified) 95 % of control; (endpoint: mean survival time, dose: 400.0 mg/kg/injection, schedule: Q01DX009 (ip), vehicle: saline sonified) 101 % of control.
Turning to `O=C(Nc1ccccc1C(F)(F)F)OCCOc1ccc(Br)cc1`, the T/C was 100 % of control under setting [11], 103 % of control under setting [12] and 87 % of control under setting [13].
Consider `C=CCC1(C)C(=O)CCC2=C1CCc1c(OC)cccc12` (stereo not given), for which the T/C is, setting by setting: under setting [7], 90 % of control; under setting [8], 90 % of control; under setting [9], 92 % of control.
As to `CC(=O)N(C)c1ccc(NC(=O)Nc2ccc(C)cc2[N+](=O)[O-])cc1`, the T/C was 95 % of control under setting [11], 92 % of control under setting [12] and 92 % of control under setting [13].
With `CC1C(C(=O)c2ccc(-c3ccccc3)cc2)N1c1ccccc1` (stereo not given), the T/C reads like this: (endpoint: mean survival time, dose: 100.0 mg/kg/injection, schedule: Q01DX001 (ip), vehicle: Klucel (hydroxypropylcellulose) (HPC)) 94 % of control; (endpoint: mean survival time, dose: 200.0 mg/kg/injection, schedule: Q01DX001 (ip), vehicle: Klucel (hydroxypropylcellulose) (HPC)) 101 % of control; (endpoint: mean survival time, dose: 400.0 mg/kg/injection, schedule: Q01DX001 (ip), vehicle: Klucel (hydroxypropylcellulose) (HPC)) 86 % of control.
As for `C=C1CC(C)(Cn2cnc3c(=O)[nH]cnc32)OC1=O` (stereo not given), the T/C (endpoint: median survival time, dose: 3.13 mg/kg/injection, schedule: Q01DX005 (ip), vehicle: water) is 94 % of control; the T/C (endpoint: median survival time, dose: 6.25 mg/kg/injection, schedule: Q01DX005 (ip), vehicle: water) is 94 % of control; the T/C (endpoint: median survival time, dose: 12.5 mg/kg/injection, schedule: Q01DX005 (ip), vehicle: water) was 98 % of control; the T/C (endpoint: median survival time, dose: 25.0 mg/kg/injection, schedule: Q01DX005 (ip), vehicle: water) is 92 % of control.
Consider `CC1(c2ccccc2)CCc2ccccc21` (stereo not given), for which the T/C runs as follows: under setting [2], 97 % of control; under setting [3], 95 % of control; under setting [4], 95 % of control.
As to `O=C(CNC(=O)Nc1ccc(F)cc1)N/N=C/c1c(O)ccc2ccccc12`, the T/C was 92 % of control under setting [10], 96 % of control under setting [2] and 96 % of control under setting [3].
On to `Cc1[nH]c2ccccc2c1C(C)(Cc1cc2ccccc2[nH]1)c1ccncc1` (stereo not given), for which the T/C is 91 % of control under setting [2], 100 % of control under setting [3] and 91 % of control under setting [4].
For `C1CCC(NC2=NCCO2)CC1`, under setting [1], the T/C was 90 % of control.
For `OCC1OC(Oc2ccccc2)C(O)C1O` (stereo not given), the T/C is 93 % of control (endpoint: mean survival time, dose: 75.0 mg/kg/injection, schedule: Q01DX001 (ip), vehicle: saline); 98 % of control (endpoint: mean survival time, dose: 150.0 mg/kg/injection, schedule: Q01DX001 (ip), vehicle: saline); 98 % of control (endpoint: mean survival time, dose: 300.0 mg/kg/injection, schedule: Q01DX001 (ip), vehicle: saline).
As to `COc1cc2cc3c4ccc(OC)c(OC)c4cc[n+]3c(C)c2cc1OC` (tested in a mixture with another compound), the T/C was 108 % of control (endpoint: mean survival time, dose: 6.25 mg/kg/injection, schedule: Q01DX009 (ip), vehicle: other); 106 % of control (endpoint: mean survival time, dose: 12.5 mg/kg/injection, schedule: Q01DX009 (ip), vehicle: other); 116 % of control (endpoint: mean survival time, dose: 25.0 mg/kg/injection, schedule: Q01DX009 (ip), vehicle: other); 97 % of control (endpoint: mean survival time, dose: 50.0 mg/kg/injection, schedule: Q01DX009 (ip), vehicle: other).
